# Experimental data: patent publication US8048862B2, “Macrocyclic inhibitors of hepatitis C virus replication” (priority 2008, dated 2011)
# Legend:
# hepatitis C replicon = hepatitis C replicon EC50; format: cell-based; details: Hepatitis C virus; Table 2; hepatitis C replicon; read-out: EC50
# Excerpt: NS3-NS4 inhibition activity can be determined using known assay methods.
# NS3/NS4 complexes = NS3/NS4 complexes (Hepatitis C virus genotype 1a, UniProt P27958); test: NS3/NS4 inhibition activity (IC50); format: biochemical; details: Table 2, read-out: IC50
# Method in brief: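 NS3/NS4 complexes were formed and compound inhibitory concentrations determined at ambient temperature (23 °C). The buffer contained 50 mM Tris-HCl pH 7.5, 15% glycerol, 0.6 mM LDAO, 25 μM NS4A peptide and 10 mM DTT.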
# Sequence of NS3/NS4 complexes (P27958 1027-1657): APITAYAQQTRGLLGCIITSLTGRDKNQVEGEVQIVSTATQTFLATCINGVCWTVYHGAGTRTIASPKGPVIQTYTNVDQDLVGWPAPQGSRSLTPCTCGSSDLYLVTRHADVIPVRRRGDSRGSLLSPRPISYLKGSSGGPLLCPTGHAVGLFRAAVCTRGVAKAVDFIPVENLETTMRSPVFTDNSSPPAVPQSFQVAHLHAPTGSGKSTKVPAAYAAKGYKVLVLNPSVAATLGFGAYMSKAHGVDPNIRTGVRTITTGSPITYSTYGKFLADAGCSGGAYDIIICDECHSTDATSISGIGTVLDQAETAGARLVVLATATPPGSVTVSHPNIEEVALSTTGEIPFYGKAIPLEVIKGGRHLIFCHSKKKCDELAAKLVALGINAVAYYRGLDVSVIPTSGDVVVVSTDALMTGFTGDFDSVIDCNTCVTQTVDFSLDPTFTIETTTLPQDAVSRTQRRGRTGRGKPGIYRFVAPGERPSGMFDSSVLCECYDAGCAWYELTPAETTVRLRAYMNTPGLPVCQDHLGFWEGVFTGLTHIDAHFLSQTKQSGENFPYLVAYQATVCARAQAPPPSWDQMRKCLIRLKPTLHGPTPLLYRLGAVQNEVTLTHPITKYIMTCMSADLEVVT
# Sequence of NS3/NS4 complexes (P27958 1658-1711): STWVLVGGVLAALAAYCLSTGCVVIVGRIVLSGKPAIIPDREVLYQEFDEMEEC
SMILES,EC50 (hepatitis C replicon),IC50 (NS3/NS4 complexes)
CC(C)n1c(O[C@@H]2C[C@H]3C(=O)N[C@]4(C(=O)NS(=O)(=O)C5(C)CC5)C[C@H]4/C=C\CCCCC[C@H](Nc4cc(F)cc(C(F)(F)F)c4)C(=O)N3C2)nc2ccccc21 [Compound 376],< 10 nM,< 10 nM
COc1ccc2c(O[C@@H]3C[C@H]4C(=O)N[C@]5(C(=O)NS(=O)(=O)C6CC6)C[C@H]5/C=C\CCCCC[C@H](Nc5cccc(OC(F)(F)F)c5)C(=O)N4C3)cc(-c3nc(C(C)C)cs3)nc2c1C [Compound 377],< 10 nM,< 10 nM
COc1ccc2c(O[C@@H]3C[C@H]4C(=O)N[C@]5(C(=O)NS(=O)(=O)C6(C)CC6)C[C@H]5/C=C\CCCCC[C@H](Nc5cccc(OC(F)(F)F)c5)C(=O)N4C3)cc(-c3nc(C(C)C)cs3)nc2c1C [Compound 378],< 10 nM,< 10 nM
COc1ccc2c(O[C@@H]3C[C@H]4C(=O)N[C@]5(C(=O)NS(=O)(=O)C6(C)CC6)C[C@H]5/C=C\CCCCC[C@H](Nc5nc6ccccc6o5)C(=O)N4C3)cc(-c3nc(C(C)C)cs3)nc2c1C [Compound 379],< 10 nM,< 10 nM
CC1(S(=O)(=O)NC(=O)[C@@]23C[C@H]2/C=C\CCCCC[C@H](Nc2nc4ccccc4o2)C(=O)N2C[C@H](Oc4nccc5ccccc45)C[C@H]2C(=O)N3)CC1 [Compound 380],10 to 75 nM,< 10 nM
CC1(S(=O)(=O)NC(=O)[C@@]23C[C@H]2/C=C\CCCCC[C@H](Nc2ccc(F)c(F)c2)C(=O)N2C[C@H](Oc4nccc5ccccc45)C[C@H]2C(=O)N3)CC1 [Compound 381],10 to 75 nM,< 10 nM
CCn1c(O[C@@H]2C[C@H]3C(=O)N[C@]4(C(=O)NS(=O)(=O)C5CC5)C[C@H]4/C=C\CCCCC[C@H](Nc4cc(F)cc(C(F)(F)F)c4)C(=O)N3C2)nc2ccccc21 [Compound 388],10 to 75 nM,< 10 nM
CC(C)n1c(O[C@@H]2C[C@H]3C(=O)N[C@]4(C(=O)NS(=O)(=O)N(C)C)C[C@H]4/C=C\CCCCC[C@H](Nc4cc(F)cc(C(F)(F)F)c4)C(=O)N3C2)nc2ccccc21 [Compound 391],10 to 75 nM,< 10 nM
COc1ccc2c(O[C@@H]3C[C@H]4C(=O)N[C@]5(C(=O)NS(=O)(=O)C6(C)CC6)C[C@H]5/C=C\CCCCC[C@H](Nc5cccc(OC(F)(F)F)c5)C(=O)N4C3)cc(-c3ccccc3)nc2c1 [Compound 392],< 10 nM,< 10 nM
CC(C)n1c(O[C@@H]2C[C@H]3C(=O)N[C@]4(C(=O)NS(=O)(=O)C5CC5)C[C@H]4/C=C\CCCCC[C@H](Nc4cc(F)cc(C(F)(F)F)c4)C(=O)N3C2)nc2ccccc21 [Compound 393],10 to 75 nM,< 10 nM
CCn1c(O[C@@H]2C[C@H]3C(=O)N[C@]4(C(=O)NS(=O)(=O)C5(C)CC5)C[C@H]4/C=C\CCCCC[C@H](Nc4ccccc4)C(=O)N3C2)nc2ccccc21 [Compound 395],< 10 nM,< 10 nM
CC1(S(=O)(=O)NC(=O)[C@@]23C[C@H]2/C=C\CCCCC[C@H](Nc2cc(F)cc(C(F)(F)F)c2)C(=O)N2C[C@H](Oc4nc(-c5ccccc5)cs4)C[C@H]2C(=O)N3)CC1 [Compound 396],> 500 nM,< 10 nM
CC(C)(C)Cn1c(O[C@@H]2C[C@H]3C(=O)N[C@]4(C(=O)NS(=O)(=O)C5(C)CC5)C[C@H]4/C=C\CCCCC[C@H](Nc4cc(F)cc(C(F)(F)F)c4)C(=O)N3C2)nc2ccccc21 [Compound 401],75 to 500 nM,< 10 nM
CC(C)Cn1c(O[C@@H]2C[C@H]3C(=O)N[C@]4(C(=O)NS(=O)(=O)C5(C)CC5)C[C@H]4/C=C\CCCCC[C@H](Nc4cc(F)cc(C(F)(F)F)c4)C(=O)N3C2)nc2ccccc21 [Compound 402],10 to 75 nM,< 10 nM
COc1ccc2c(O[C@@H]3C[C@H]4C(=O)N[C@]5(C(=O)NS(=O)(=O)C6CC6)C[C@H]5/C=C\CCCCC[C@H](Nc5ccccc5)C(=O)N4C3)cc(-c3nc(C(C)C)cs3)nc2c1C [Compound 407],< 10 nM,< 10 nM
COc1ccc2c(O[C@@H]3C[C@H]4C(=O)N[C@]5(C(=O)NS(=O)(=O)C6CC6)C[C@H]5/C=C\CCCCC[C@H](Nc5ccc(F)cc5)C(=O)N4C3)cc(-c3nc(C(C)C)cs3)nc2c1C [Compound 409],< 10 nM,< 10 nM
COc1ccc2c(O[C@@H]3C[C@H]4C(=O)N[C@]5(C(=O)NS(=O)(=O)C6CC6)C[C@H]5/C=C\CCCCC[C@H](Nc5cccc(F)c5)C(=O)N4C3)cc(-c3nc(C(C)C)cs3)nc2c1C [Compound 411],< 10 nM,< 10 nM
COc1ccc2c(O[C@@H]3C[C@H]4C(=O)N[C@]5(C(=O)NS(=O)(=O)N(C)C)C[C@H]5/C=C\CCCCC[C@H](Nc5ccccc5)C(=O)N4C3)cc(-c3nc(C(C)C)cs3)nc2c1C [Compound 412],< 10 nM,< 10 nM
COc1ccc2c(O[C@@H]3C[C@H]4C(=O)N[C@]5(C(=O)NS(=O)(=O)N(C)C)C[C@H]5/C=C\CCCCC[C@H](Nc5ccc(F)cc5)C(=O)N4C3)cc(-c3nc(C(C)C)cs3)nc2c1C [Compound 415],< 10 nM,< 10 nM

SMILES,EC50 (hepatitis C replicon),IC50 (NS3/NS4 complexes)
COc1ccc2c(O[C@@H]3C[C@H]4C(=O)N[C@]5(C(=O)NS(=O)(=O)N(C)C)C[C@H]5/C=C\CCCCC[C@H](Nc5cccc(F)c5)C(=O)N4C3)cc(-c3nc(C(C)C)cs3)nc2c1C [Compound 417],< 10 nM,< 10 nM
COc1ccc2c(O[C@@H]3C[C@H]4C(=O)N[C@]5(C(=O)NS(=O)(=O)C6CC6)C[C@H]5/C=C\CCCCC[C@H](Nc5cc(F)cc(C(F)(F)F)c5)C(=O)N4C3)cc(-c3nc(C(C)C)cs3)nc2c1C [Compound 439],< 10 nM,< 10 nM
CC1(S(=O)(=O)NC(=O)[C@@]23C[C@H]2/C=C\CCCCC[C@H](Nc2cccc(OC(F)(F)F)c2)C(=O)N2C[C@H](Oc4nccc5ccccc45)C[C@H]2C(=O)N3)CC1 [Compound 444],10 to 75 nM,< 10 nM
COc1ccc2c(O[C@@H]3C[C@H]4C(=O)N[C@]5(C(=O)NS(=O)(=O)C6(C)CC6)C[C@H]5/C=C\CCCCC[C@H](Nc5ccc(C(F)(F)F)cc5)C(=O)N4C3)cc(-c3nc(C(C)C)cs3)nc2c1C [Compound 445],< 10 nM,< 10 nM
COc1ccc2c(O[C@@H]3C[C@H]4C(=O)N[C@]5(C(=O)NS(=O)(=O)C6CC6)C[C@H]5/C=C\CCCCC[C@H](Nc5ccc(C(F)(F)F)cc5)C(=O)N4C3)cc(-c3nc(C(C)C)cs3)nc2c1C [Compound 446],< 10 nM,< 10 nM
COc1ccc2c(O[C@@H]3C[C@H]4C(=O)N[C@]5(C(=O)NS(=O)(=O)C6CC6)C[C@H]5/C=C\CCCCC[C@H](Nc5ccc(F)c(C(F)(F)F)c5)C(=O)N4C3)cc(-c3nc(C(C)C)cs3)nc2c1C [Compound 447],< 10 nM,< 10 nM
COc1ccc2c(O[C@@H]3C[C@H]4C(=O)N[C@]5(C(=O)O)C[C@H]5/C=C\CCCCC[C@H](Nc5ccccc5)C(=O)N4C3)cc(-c3nc(C(C)C)cs3)nc2c1C [Compound 449],10 to 75 nM,< 10 nM
COc1ccc2c(O[C@@H]3C[C@H]4C(=O)N[C@]5(C(=O)NS(=O)(=O)N6CCCC6)C[C@H]5/C=C\CCCCC[C@H](Nc5ccccc5)C(=O)N4C3)cc(-c3nc(C(C)C)cs3)nc2c1C [Compound 455],< 10 nM,< 10 nM
COc1ccc2c(O[C@@H]3C[C@H]4C(=O)N[C@]5(C(=O)NS(=O)(=O)N6CCCCC6)C[C@H]5/C=C\CCCCC[C@H](Nc5ccccc5)C(=O)N4C3)cc(-c3nc(C(C)C)cs3)nc2c1C [Compound 456],10 to 75 nM,< 10 nM
COc1ccc2c(O[C@@H]3C[C@H]4C(=O)N[C@]5(C(=O)NS(=O)(=O)N(C)C)C[C@H]5/C=C\CCCCC[C@H](Nc5cccc(C(F)(F)F)c5)C(=O)N4C3)cc(-c3nc(C(C)C)cs3)nc2c1C [Compound 457],< 10 nM,< 10 nM
COc1ccc2c(O[C@@H]3C[C@H]4C(=O)N[C@]5(C(=O)NS(=O)(=O)N(C)C)C[C@H]5/C=C\CCCCC[C@H](Nc5ccc(C(F)(F)F)cc5)C(=O)N4C3)cc(-c3nc(C(C)C)cs3)nc2c1C [Compound 458],10 to 75 nM,< 10 nM
COc1ccc2c(O[C@@H]3C[C@H]4C(=O)N[C@]5(C(=O)NS(=O)(=O)N(C)C)C[C@H]5/C=C\CCCCC[C@H](Nc5ccc(F)c(C(F)(F)F)c5)C(=O)N4C3)cc(-c3nc(C(C)C)cs3)nc2c1C [Compound 459],< 10 nM,< 10 nM
COc1ccc2c(O[C@@H]3C[C@H]4C(=O)N[C@]5(C(=O)NS(=O)(=O)N(C)C)C[C@H]5/C=C\CCCCC[C@H](Nc5cc(F)cc(C(F)(F)F)c5)C(=O)N4C3)cc(-c3nc(C(C)C)cs3)nc2c1C [Compound 460],< 10 nM,< 10 nM
CC(C)n1c(O[C@@H]2C[C@H]3C(=O)N[C@]4(C(=O)NS(=O)(=O)C5(C)CC5)C[C@H]4/C=C\CCCCC[C@H](Nc4ccccc4)C(=O)N3C2)nc2ccc(F)cc21 [Compound 461],10 to 75 nM,< 10 nM
Cc1ccc2nc(O[C@@H]3C[C@H]4C(=O)N[C@]5(C(=O)NS(=O)(=O)C6(C)CC6)C[C@H]5/C=C\CCCCC[C@H](Nc5ccccc5)C(=O)N4C3)n(C(C)C)c2c1 [Compound 462],10 to 75 nM,< 10 nM
CC(C)n1c(O[C@@H]2C[C@H]3C(=O)N[C@]4(C(=O)NS(=O)(=O)C5(C)CC5)C[C@H]4CCCCCCC[C@H](Nc4cc(F)cc(C(F)(F)F)c4)C(=O)N3C2)nc2ccccc21 [Compound 465],75 to 500 nM,< 10 nM
CCn1c(O[C@@H]2C[C@H]3C(=O)N[C@]4(C(=O)NS(=O)(=O)C5(C)CC5)C[C@H]4CCCCCCC[C@H](Nc4cc(F)cc(C(F)(F)F)c4)C(=O)N3C2)nc2ccccc21 [Compound 466],75 to 500 nM,< 10 nM
CC(C)n1c(O[C@@H]2C[C@H]3C(=O)N[C@]4(C(=O)NS(=O)(=O)C5(C)CC5)C[C@H]4/C=C\CCCCC[C@H](Nc4ccccc4)C(=O)N3C2)nc2cccc(F)c21 [Compound 467],10 to 75 nM,< 10 nM
